Assay results published in patent publication US9512128B2 (BAYER CROPSCIENCE AG, priority 2012, dated 2016).
Read-outs that look alike come from different tables or passages of the source.

What was measured:
[1] = log P by HPLC on reversed-phase columns (C 18), EEC directive 79/831 Annex V.A8; type: physicochemical; details: for logP[a]: method [a]; for logP[b]: method [b]; for chromatographic logP: reversed-phase C18 HPLC column
Summary of the method: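 Measured by reversed-phase C18 HPLC (LC-MS) with a linear 10→95% acetonitrile gradient. Acidic: pH 2.7, 0.1% formic acid. Neutral: pH 7.8, 0.001 M ammonium bicarbonate.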

[2] = test system: larvae of the mustard beetle (Phaedon cochleariae); test: Phaedon cochleariae spray test (PHAECO); type: in vivo; details: application rate 500 g/ha, after 7 days, Chinese cabbage leaf discs
Experimental: 2. Phaedon cochleariae Spray Test (PHAECO)
(§1) • Solvents: 78.0 parts by weight of acetone • 1.5 part by weight of dimethylformamide • Emulsifier: 0.5 part by weight of alkylaryl polyglycol ether
(§2) To produce a suitable preparation of active compound, 1 part by weight of active compound is mixed with the stated amounts of solvents and emulsifier, and the concentrate is diluted with emulsifier-containing water to the desired concentration.
After 7 days, the efficacy in % is determined. 100% means that all of the beetle larvae have been killed; 0% means that none of the beetle larvae have been killed.

[3] = test system: greenhouse red spider mite (Tetranychus urticae); test: Tetranychus urticae spray test, OP-resistant (TETRUR); type: in vivo; details: application rate 500 g/ha, after 6 days, bean leaf discs
Experimental: 4. Tetranychus urticae Spray Test, OP-Resistant (TETRUR)
as §1, §2
Discs of bean leaves (Phaseolus vulgaris) which are infested by all stages of the greenhouse red spider mite (Tetranychus urticae) are sprayed with an active compound preparation of the desired concentration.
After 6 days, the efficacy in % is determined. 100% means that all of the spider mites have been killed; 0% means that none of the spider mites have been killed.

[4] = test system: southern root-knot nematode (Meloidogyne incognita); test: Meloidogyne incognita test (MELGIN); type: in vivo; details: application rate 20 ppm, after 14 days, lettuce
Experimental: 5. Meloidogyne incognita Test (MELGIN) • Solvent: 125.0 parts by weight of acetone To prepare a suitable active compound preparation, 1 part by weight of active compound is mixed with the stated amount of solvent and the concentrate is diluted with water to the desired concentration. Vessels are filled with sand, active compound solution, an egg/larvae suspension of the southern root-knot nematode (Meloidogyne incognita) and lettuce seeds. The lettuce seeds germinate and the plants develop. On the roots, galls are formed. After 14 days, the nematicidal effect in % is determined by the formation of galls. 100% means that no galls have been found; 0% means that the number of galls on the treated plants corresponds to the untreated control.

Cc1c2c(=O)n(-c3ccc(C#N)c([S+]([O-])CC(F)(F)F)c3)cnc2nn1C (racemic) [Compound 51]
logP[a] [1]: 1.52
logP[b] [1]: 1.50
efficacy in % (beetle larvae killed) [2]: 100%

Cc1nn(C)c2ncn(-c3ccc(C#N)c(SCC(F)(F)F)c3)c(=O)c12 [Compound 34]
logP[a] [1]: 2.30
logP[b] [1]: 2.24
efficacy in % (beetle larvae killed) [2]: 100%

Cc1nn(C)c2ncn(-c3ccc(Cl)c([S+]([O-])CC(F)(F)F)c3)c(=O)c12 (centres unmarked) [Compound 37]
efficacy in % (spider mites killed) [3]: 90%
nematicidal effect in % (formation of galls) [4]: 80%
logP[a] [1]: 2.01
logP[b] [1]: 1.98

Cc1ccc(-n2cnc3nn(C)c(C)c3c2=O)cc1[S+]([O-])CC(F)(F)F (centres unmarked) [Compound 47]
efficacy in % (spider mites killed) [3]: 90%
nematicidal effect in % (formation of galls) [4]: 80%
logP[a] [1]: 1.54
logP[b] [1]: 1.51

Cc1cc(F)c(-n2cnc3scnc3c2=O)cc1SCC(F)(F)F [Compound 60]
logP[a] [1]: 2.54
logP[b] [1]: 2.52
efficacy in % (beetle larvae killed) [2]: 100%

Cc1nc2c(=O)n(-c3cc(SCC(F)(F)F)c(C)cc3C)cnc2s1 [Compound 72]
efficacy in % (spider mites killed) [3]: 90%
nematicidal effect in % (formation of galls) [4]: 90%
logP[a] [1]: 2.92
logP[b] [1]: 2.86

Cc1nc2c(=O)n(-c3cc([S+]([O-])CC(F)(F)F)c(C)cc3C)cnc2s1 (centres unmarked) [Compound 75]
efficacy in % (spider mites killed) [3]: 90%
nematicidal effect in % (formation of galls) [4]: 80%
logP[a] [1]: 1.84
logP[b] [1]: 1.81

Cc1cc(F)c(-n2cnc3ncsc3c2=O)cc1SCC(F)(F)F [Compound 78]
efficacy in % (spider mites killed) [3]: 90%
nematicidal effect in % (formation of galls) [4]: 90%
logP[a] [1]: 2.51
logP[b] [1]: 2.48

N#Cc1cc(F)c(-n2cnc3sccc3c2=O)cc1SCC(F)(F)F [Compound 82]
logP[a] [1]: 2.70
logP[b] [1]: 2.67
efficacy in % (beetle larvae killed) [2]: 100%

Cc1ccc(-n2cnc3sccc3c2=O)cc1[S+]([O-])CC(F)(F)F (centres unmarked) [Compound 86, 3-{4-Methyl-3-[(2,2,2-trifluoroethyl)sulphinyl]phenyl}thieno[2,3-d]pyrimidin-4(3H)-one]
efficacy in % (spider mites killed) [3]: 90%
nematicidal effect in % (formation of galls) [4]: 90%
chromatographic logP ([1]; pH 2.7, acidic range, pH 2.7, 0.1% aqueous formic acid / acetonitrile, read-out: log P[a]): 1.94
chromatographic logP ([1]; pH 2.7, method [a], read-out: logP[a]): 1.94
chromatographic logP ([1]; pH 7.8, method [b], read-out: logP[b]): 1.93
chromatographic logP ([1]; pH 7.8, neutral range, pH 7.8, 0.001 molar aqueous ammonium bicarbonate / acetonitrile, read-out: log P[b]): 1.93

CC(C)(C)c1snc2ncn(-c3ccc(Cl)c([S+]([O-])CC(F)(F)F)c3)c(=O)c12 (centres unmarked) [Compound 118]
efficacy in % (spider mites killed) [3]: 90%
nematicidal effect in % (formation of galls) [4]: 90%
logP[a] [1]: 3.14
logP[b] [1]: 3.08

CCc1noc2ncn(-c3cc([S+]([O-])CC(F)(F)F)c(C)cc3F)c(=O)c12 (centres unmarked) [Compound 198]
efficacy in % (spider mites killed) [3]: 90%
nematicidal effect in % (formation of galls) [4]: 100%

Cc1cc(F)c(-n2cnc3onc(C(F)(F)F)c3c2=O)cc1[S+]([O-])CC(F)(F)F (centres unmarked) [Compound 199]
efficacy in % (spider mites killed) [3]: 90%
nematicidal effect in % (formation of galls) [4]: 100%

Cc1cc(F)c(-n2cnc3onc(C(C)C)c3c2=O)cc1[S+]([O-])CC(F)(F)F (centres unmarked) [Compound 200]
efficacy in % (spider mites killed) [3]: 100%
nematicidal effect in % (formation of galls) [4]: 100%

Cc1cc(F)c(-n2cnc3snc(C)c3c2=O)cc1SCC(F)(F)F [Compound 202]
efficacy in % (spider mites killed) [3]: 90%
nematicidal effect in % (formation of galls) [4]: 90%

Cc1cc(F)c(-n2c(C)nc3snc(C)c3c2=O)cc1SCC(F)(F)F [Compound 209]
efficacy in % (spider mites killed) [3]: 90%
nematicidal effect in % (formation of galls) [4]: 100%

Cc1cc(F)c(-n2c(C)nc3snc(C)c3c2=O)cc1[S+]([O-])CC(F)(F)F (centres unmarked) [Compound 210]
efficacy in % (spider mites killed) [3]: 100%
nematicidal effect in % (formation of galls) [4]: 100%

Cc1cc(F)c(-n2cnc3csnc3c2=O)cc1[S+]([O-])CC(F)(F)F (centres unmarked) [Compound 212]
efficacy in % (spider mites killed) [3]: 90%
nematicidal effect in % (formation of galls) [4]: 100%
